# Experiments:
# Experiment in all cases: Kinase panel profiling at 1 µmol/L (MSA or IMAP), percentage inhibition
# Format in all cases: biochemical
# [1] = target: panel of 255 wild-type kinases (Homo sapiens, UniProt P11309); conditions: kinase PIM1; 1 µmol/L single concentration; read-out: %-inhibition at 1 µmol/L, PIM1
# [2] = target: panel of 255 wild-type kinases (Homo sapiens, UniProt P28482); conditions: kinase Erk2; 1 µmol/L single concentration; read-out: %-inhibition at 1 µmol/L, Erk2
# [3] = target: panel of 255 wild-type kinases (Homo sapiens, UniProt P49137); conditions: kinase MAPKAPK2; 1 µmol/L single concentration; read-out: %-inhibition at 1 µmol/L, MAPKAPK2
# [4] = target: panel of 255 wild-type kinases (Homo sapiens, UniProt P49674); conditions: kinase CK1ε; 1 µmol/L single concentration; read-out: %-inhibition at 1 µmol/L, CK1ε
# [5] = target: panel of 255 wild-type kinases (Homo sapiens, UniProt P51617); conditions: kinase IRAK1; 1 µmol/L single concentration; read-out: %-inhibition at 1 µmol/L, IRAK1
# [6] = target: T1, panel of 255 wild-type kinases (Homo sapiens, UniProt P52333); conditions: kinase JAK3; 1 µmol/L single concentration; read-out: %-inhibition at 1 µmol/L, JAK3
# T1 sequence (P52333 1-1124): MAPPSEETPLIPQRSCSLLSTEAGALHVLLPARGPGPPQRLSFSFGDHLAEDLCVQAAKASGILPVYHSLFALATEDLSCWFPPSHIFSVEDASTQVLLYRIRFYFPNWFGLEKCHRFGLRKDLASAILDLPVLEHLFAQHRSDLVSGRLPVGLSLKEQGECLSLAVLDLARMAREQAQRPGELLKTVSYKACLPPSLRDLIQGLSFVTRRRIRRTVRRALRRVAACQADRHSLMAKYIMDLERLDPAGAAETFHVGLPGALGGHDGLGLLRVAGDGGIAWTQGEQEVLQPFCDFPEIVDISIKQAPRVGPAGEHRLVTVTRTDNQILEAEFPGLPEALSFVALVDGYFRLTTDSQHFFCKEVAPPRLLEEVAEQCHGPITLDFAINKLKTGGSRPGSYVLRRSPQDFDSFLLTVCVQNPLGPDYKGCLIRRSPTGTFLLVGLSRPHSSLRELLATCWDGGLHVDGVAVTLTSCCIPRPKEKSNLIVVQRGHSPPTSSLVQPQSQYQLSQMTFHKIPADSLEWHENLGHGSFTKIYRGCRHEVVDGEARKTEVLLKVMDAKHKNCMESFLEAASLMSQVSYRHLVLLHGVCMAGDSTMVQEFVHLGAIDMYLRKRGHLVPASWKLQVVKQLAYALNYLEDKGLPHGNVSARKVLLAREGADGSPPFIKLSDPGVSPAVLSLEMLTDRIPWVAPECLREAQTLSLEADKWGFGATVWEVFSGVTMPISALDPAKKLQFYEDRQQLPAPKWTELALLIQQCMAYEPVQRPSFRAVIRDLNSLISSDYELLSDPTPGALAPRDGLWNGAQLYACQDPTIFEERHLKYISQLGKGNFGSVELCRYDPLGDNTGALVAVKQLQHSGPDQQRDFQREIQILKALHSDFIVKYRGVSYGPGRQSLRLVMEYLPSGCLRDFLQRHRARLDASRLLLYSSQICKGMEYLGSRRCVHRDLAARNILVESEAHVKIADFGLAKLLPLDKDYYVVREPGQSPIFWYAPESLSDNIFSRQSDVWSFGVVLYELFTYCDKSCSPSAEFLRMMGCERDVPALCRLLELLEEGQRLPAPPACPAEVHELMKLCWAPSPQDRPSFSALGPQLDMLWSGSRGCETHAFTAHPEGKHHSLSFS
# [7] = target: panel of 255 wild-type kinases (Homo sapiens, UniProt Q16644); conditions: MAPKAPK3; 1 µmol/L single concentration; read-out: %-inhibition, MAPKAPK3
# [8] = target: T2, panel of 255 wild-type kinases (Homo sapiens, UniProt Q16832); conditions: kinase DDR2; 1 µmol/L single concentration; read-out: %-inhibition at 1 µmol/L, DDR2
# T2 sequence (Q16832 22-855): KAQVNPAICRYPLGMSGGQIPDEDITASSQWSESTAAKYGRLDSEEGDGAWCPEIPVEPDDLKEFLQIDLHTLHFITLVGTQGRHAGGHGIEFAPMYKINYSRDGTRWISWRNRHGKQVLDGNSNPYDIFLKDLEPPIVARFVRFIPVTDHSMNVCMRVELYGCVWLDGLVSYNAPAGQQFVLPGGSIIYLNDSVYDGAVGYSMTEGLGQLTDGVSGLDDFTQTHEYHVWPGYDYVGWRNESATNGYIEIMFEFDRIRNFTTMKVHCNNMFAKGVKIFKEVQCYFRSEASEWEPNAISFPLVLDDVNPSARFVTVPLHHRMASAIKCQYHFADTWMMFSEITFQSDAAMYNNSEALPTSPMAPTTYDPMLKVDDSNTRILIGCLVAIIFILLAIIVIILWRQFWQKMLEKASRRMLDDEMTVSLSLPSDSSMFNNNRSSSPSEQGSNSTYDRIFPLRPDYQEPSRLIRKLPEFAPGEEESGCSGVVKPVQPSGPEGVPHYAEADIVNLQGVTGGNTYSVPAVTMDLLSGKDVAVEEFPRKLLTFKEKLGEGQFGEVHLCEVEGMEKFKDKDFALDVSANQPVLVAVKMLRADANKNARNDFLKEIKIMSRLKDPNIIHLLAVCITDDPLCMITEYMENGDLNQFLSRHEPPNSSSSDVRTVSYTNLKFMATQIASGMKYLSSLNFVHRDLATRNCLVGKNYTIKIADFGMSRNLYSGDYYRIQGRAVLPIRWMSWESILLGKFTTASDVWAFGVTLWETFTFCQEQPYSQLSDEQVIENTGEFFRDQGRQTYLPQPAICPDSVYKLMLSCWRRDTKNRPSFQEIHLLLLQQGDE
# [9] = target: panel of 255 wild-type kinases (Homo sapiens, UniProt Q9HC98); conditions: NEK6; 1 µmol/L single concentration; read-out: %-inhibition, NEK6
# [10] = target: panel of 255 wild-type kinases (Homo sapiens, UniProt Q9HCP0); conditions: kinase CK1γ1; 1 µmol/L single concentration; read-out: %-inhibition at 1 µmol/L, CK1γ1
Structure (SMILES),inhibition at 1 µM [1] [%],inhibition at 1 µM [2] [%],inhibition at 1 µM [3] [%],inhibition at 1 µM [4] [%],inhibition at 1 µM [5] [%],inhibition at 1 µM [6] [%],inhibition at 1 µM [7] [%],inhibition at 1 µM [8] [%],inhibition at 1 µM [9] [%],inhibition at 1 µM [10] [%]
C[C@H]1Oc2cc(cnc2N)-c2c(nn(C)c2C#N)CN(C)C(=O)c2ccc(F)cc21 [lorlatinib],8,0.392,-14,0.583,10,6.62,-10,21,-0.382,-2.3
COC(=O)N[C@@H](C)CNc1nccc(-c2cn(C(C)C)nc2-c2cc(Cl)cc(NS(C)(=O)=O)c2F)n1 [encorafenib],10,2.55,-11,15,21,2.28,-15,-7,-2.36,26
CCc1nc(C(N)=O)c(Nc2ccc(N3CCC(N4CCN(C)CC4)CC3)c(OC)c2)nc1NC1CCOCC1 [gilteritinib],6,-1.15,-27,5.55,84,91,-16,99,-2,11
CN1CCN(c2ccc(C(=O)Nc3n[nH]c4ccc(Cc5cc(F)cc(F)c5)cc34)c(NC3CCOCC3)c2)CC1 [entrectinib],-6,-0.572,-14,10,16,97,-10,100,-1.86,-1.18
COc1cc2ncnc(Nc3ccc(F)c(Cl)c3)c2cc1NC(=O)/C=C/CN1CCCCC1 [dacomitinib],32,-1.48,-40,6.55,76,28,-25,93,-4.7,1.84
Cn1cc(-c2cc3c(N4CCN(c5ncc([C@@](C)(N)c6ccc(F)cc6)cn5)CC4)ncnn3c2)cn1 [avapritinib],24,5,-0.02,2.14,8,64,-4,98,-1.13,28
CCn1c(=O)c(-c2cc(NC(=O)Nc3ccccc3)c(F)cc2Br)cc2cnc(NC)cc21 [ripretinib],-5,-2.43,-24,1.8,-5.68,7,-16,98,-4,-0.282
